Where two headings read alike, the source gives them in different places. Blank lines part the entries; values can stand above or below the molecule they belong to.
Columns and labels:
[1] = target: T1, MTH1 (Homo sapiens, UniProt P36639); settings: pH 7.5 but methods buffer pH 8.0, 10 mM Mg acetate, unit assumed
T1 construct: gene NUDT1

[2] = target: T2, NUDT18 (Homo sapiens, UniProt Q6ZVK8); test: phosphate release, malachite green assay; type: biochemical; settings: 50 uM nucleotide, 25 nM enzyme, 22 C, 30 min, pH 8.0, 10 mM Mg acetate; which of 8-oxo-dGTP or 8-oxo-dGDP belongs to NUDT18 is not spelt out
T2 construct: recombinant, cDNA codon-optimized for E. coli in pET28a(+); His-tag removed by TEV or thrombin
T2 sequence (Q6ZVK8 1-323): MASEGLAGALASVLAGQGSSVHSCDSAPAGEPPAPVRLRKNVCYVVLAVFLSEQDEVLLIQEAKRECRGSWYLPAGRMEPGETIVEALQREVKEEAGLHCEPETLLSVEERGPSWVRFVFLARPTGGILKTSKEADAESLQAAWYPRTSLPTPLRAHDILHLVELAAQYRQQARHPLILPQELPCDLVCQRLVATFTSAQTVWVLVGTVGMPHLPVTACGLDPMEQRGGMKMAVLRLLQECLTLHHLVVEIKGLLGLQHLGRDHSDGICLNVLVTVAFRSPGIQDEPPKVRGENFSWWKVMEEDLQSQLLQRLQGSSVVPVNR

[3] = target: the molecule itself; test: SEC; 10/300 GL S75 column, 20 mM HEPES pH 7.5, 300 mM NaCl, 10% glycerol, 0.5 mM TCEP; 0.24 mg NUDT15 in 500 ul

Molecule: Nc1nc2c([nH]c(=O)n2[C@H]2C[C@H](O)[C@@H](COP(=O)(O)OP(=O)(O)O)O2)c(=O)[nH]1 [8-oxo-dGDP]
- phosphate release, malachite green assay [2]: NUDT15 and NUDT18 have the ability to hydrolyse 8-oxo-dGTP or 8-oxo-dGDP in biochemical assays

B1: NUDT15 (enzyme, human, UniProt Q9NV35 1-164, looked up)
chain: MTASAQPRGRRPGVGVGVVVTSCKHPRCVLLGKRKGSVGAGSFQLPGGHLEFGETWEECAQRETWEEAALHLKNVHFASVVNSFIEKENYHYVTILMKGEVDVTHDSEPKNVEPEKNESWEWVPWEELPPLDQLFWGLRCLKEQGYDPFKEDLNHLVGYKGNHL
notes: NUDT15 (MTH2), human, full length; expression construct pNIC28hNUDT15 from the Structural Genome Consortium; The His-tag was removed by TEV protease or thrombin; Crystals grew in the presence of alpha-chymotrypsin, so the chain in the crystal may be shorter than full length; also called MTH2; MutT homologue 2; source: E. coli BL21 (DE3) T1R pRARE2, purified (HisTrap HP, gel filtration Superdex 75)
- stoichiometry N [3]: 2

The next lines start with the values.

- Km ([1]; 0-400 uM dGTP, 2 nM enzyme): 110 ± 35 µM
Molecule: Nc1nc2c(ncn2[C@H]2C[C@H](O)[C@@H](COP(=O)(O)OP(=O)(O)OP(=O)(O)O)O2)c(=O)[nH]1 [dGTP, 2′-Deoxyguanosine-5′-triphosphate]

- Km ([1]; 0-100 uM 8-oxo-dGTP, 0.25 nM enzyme): 10.2 ± 0.8 µM
Molecule: Nc1nc2c([nH]c(=O)n2[C@H]2C[C@H](O)[C@@H](COP(=O)(O)OP(=O)(O)OP(=O)(O)O)O2)c(=O)[nH]1 [8-oxo-dGTP]

From PMC4532830, “Crystal structure, biochemical and cellular activities demonstrate separate functions of MTH1 and MTH2” (Nature Communications, 2015)
